# Source: patent publication US5527782A, “5-halo-2,3'-O-cyclocytidines” (ACIC (Canada) Inc., priority 1990, dated 1996)
# Structures can show the parent of a compound that is named as a salt.
# Assays:
# A549 = experiment: In vivo antitumor activity, A549 engrafted s.c. in SCID mice; conditions: for Growth Delay: calculated from tumor volume curve; for Tumor Weight (% Inhibition): tumor weight at day 20
# Experimental: (§1) In vivo studies were conducted comparing the effectiveness of 5-bromo-2,3'-O-cyclocytidine hydrochloride (5-Br-cycloC) with one or more of 2,3'-O-cyclocytidine hydrochloride (cycloC), 1 -β-D-arabinofuranosylcytosine (Ara-C), Adfiamycin (ADR) and Dacarbazine (DTIC).
# (§2) More specifically, the antitumor activity of these compounds were evaluated in two human tumor cell lines engrafted in severe combined immunodeficient (SCID) mice. The particular cell lines used in this Example were A549 (described above in Example 5) and melanoma A375 cells obtained from The American Type Culture Collection (ATCC) (hereinafter referred to as A375).
# A375 melanoma cells = experiment: In vivo antitumor activity, A375 melanoma engrafted s.c. in SCID mice; conditions: for Growth Delay: calculated from tumor volume curve; for Tumor Weight (% Inhibition): tumor weight at day 20
# Experimental: as §1, §2
# [1] = system: human alveolar tumour cell line A549; experiment: [methyl-^3 H]thymidine uptake / cytotoxicity in human alveolar tumour cell line A549; format: cell-based; conditions: for IC50: Homo sapiens, 96 h, A549, four days incubation, then [methyl-^3 H]thymidine four hours, read-out: IC50 (drug concentrations producing 50% cytotoxicity); for cytotoxic effect on A549 cells compared to 2,3'-O-cyclocytidine hydrochloride: at relatively low concentrations
# From the text: In this Example, there is described an in vitro comparison between 2,3'-O-cyclocytidine hydrochloride, 5-bromo-2,3'-O-cyclocytidine hydrochloride, and 5-iodo-2,3'-O-cyclocytidine hydrochloride. The specific in vitro test involved assessing the toxicity of the compounds in a particular cell line by conducting [methyl-^3 H]thymidine uptake experiments.
# The particular cell line used in the Example was human alveolar tumour cell line A549 (hereinafter referred to as A549) obtained from The American Type Culture Collection (ATCC) as CCL 185 (lung carcinoma, human).
# Cultures were inoculated at 1×10^5 cells/60 mm dish, incubated for four days in the presence of various concentrations (see FIGURE) of 2,3'-O-cyclocytidine hydrochloride (.largecircle.), 5-bromo-2,3'-O-cyclocytidine hydrochloride and 5-iodo-2,3'-O-cyclocytidine hydrochloride. Thereafter, the cells were incubated with a medium supplemented with [methyl-^3 H]thymidine (82 Cl/mmol; 5 μCl/ml) for four hours and lysed, and the amount of radioactivity incorporated into genomic DNA was measured. The IC50 values (drug concentrations producing 50% cytotoxicity) for each compound illustrated in the FIGURE are reported in Table 10. As will be apparent from […]
# [2] = MTD in non-tumor bearing SCID mice; conditions: mouse, in vivo, ip, i.p. daily×7
# [3] = Experiment 1, 60 mg/kg i.p. daily × 7
# [4] = Experiment 2, 60 mg/kg i.p. daily ×
# [5] = Experiment 2, 60 mg/kg i.p. daily × 7
# [6] = Experiment 1, 250 mg/kg i.p. daily × 7
# [7] = Experiment 1, 250 mg/kg i.p. every other day × 7
# [8] = Experiment 1, 200 mg/kg i.p. daily × 7
# [9] = Experiment 2, 250 mg/kg i.p. daily × 7
# [10] = Experiment 2, 300 mg/kg i.p. × 1
# [11] = Experiment 3, 250 mg/kg i.p. daily × 7
# [12] = Experiment 3, 250 mg/kg i.p. every other day × 7
# [13] = Experiment 4, 250 mg/kg i.p. every other day × 7
# [14] = Experiment 1, 1000 mg/kg i.p. daily × 7
# [15] = Experiment 3, 120 mg/kg i.p. every other day × 7
# [16] = Experiment 4, 120 mg/kg i.p. every other day × 7
structure (smiles),measurement,setting,value
"Nc1ccn([C@@H]2O[C@H](CO)[C@@H](O)[C@@H]2O)c(=O)n1 [Ara-C, 1 -β-D-arabinofuranosylcytosine]",survival rate,"A549; A549, Table 12",≤ 33.3%
same,Survival Rate (%),A549; [3],33.3%
same,Growth Delay,A549; [3],7 days
same,Tumor Weight (% Inhibition),A549; [3],38%
same,Survival Rate (%),A549; [4],33.3%
same,Growth Delay,A549; [4],11 days
same,Tumor Weight (% Inhibition),A549; [4],47%
same,weight loss,A549; in vivo,weight loss
same,Survival Rate (%),A375 melanoma cells; [3],100%
same,Growth Delay,A375 melanoma cells; [3],10 days
same,Tumor Weight (% Inhibition),A375 melanoma cells; [3],45%
same,Survival Rate (%),A375 melanoma cells; [5],100%
same,Growth Delay,A375 melanoma cells; [5],11 days
same,Tumor Weight (% Inhibition),A375 melanoma cells; [5],39%
"N=c1nc2n(cc1Br)[C@@H]1O[C@H](CO)[C@H](O2)[C@H]1O [5-bromo-2,3'-O-cyclocytidine hydrochloride]",IC50,[1],40 µM
same,"cytotoxic effect on A549 cells compared to 2,3'-O-cyclocytidine hydrochloride",[1],significantly superior cytotoxic effect
same,decrease of tumor growth,"A549; 250 mg/kg daily×7, over a 20 day period",significantly decreased tumor growth
same,Growth Delay,A549; [6],10 days
same,Tumor Weight (% Inhibition),A549; [6],43%
same,Growth Delay,A549; [7],6 days
same,Tumor Weight (% Inhibition),A549; [7],12%
same,survival rate,A549; in vivo,100%
same,weight loss,A549; in vivo,no weight loss (or an actual weight in one stance)
same,Survival Rate (%),"A549; in vivo, ip, 250 mg/kg",100%
same,MTD,[2],250 mg/kg
same,Growth Delay,A375 melanoma cells; [8],10 days
same,Tumor Weight (% Inhibition),A375 melanoma cells; [8],26%
same,Growth Delay,A375 melanoma cells; [9],10 days
same,Tumor Weight (% Inhibition),A375 melanoma cells; [9],43%
same,Growth Delay,A375 melanoma cells; [10],11 days
same,Tumor Weight (% Inhibition),A375 melanoma cells; [10],45%
same,Growth Delay,A375 melanoma cells; [11],9 days
same,Tumor Weight (% Inhibition),A375 melanoma cells; [11],38%
same,Growth Delay,A375 melanoma cells; [12],12 days
same,Tumor Weight (% Inhibition),A375 melanoma cells; [12],43%
same,Growth Delay,A375 melanoma cells; [13],11 days
same,Tumor Weight (% Inhibition),A375 melanoma cells; [13],48%
same,weight loss during therapy,A375 melanoma cells; in vivo,no weight loss (or in two instances an actual weight gain)
same,Survival Rate (%),"A375 melanoma cells; in vivo, ip, 200 mg/kg",100%
same,Weight Loss (% Decrease),"A375 melanoma cells; in vivo, ip, 200 mg/kg",0%
same,Survival Rate (%),"A375 melanoma cells; in vivo, ip, 300 mg/kg",33.3%
same,Weight Loss (% Decrease),"A375 melanoma cells; in vivo, ip, 300 mg/kg",0%
same,effectiveness in effecting tumor growth delay,"A375 melanoma cells; treatment of A375, Table 11","as effective in effecting tumor growth delay as 1-β-D-arabinofuranosylcytosine and dacarbazine, and much more effective than 2,3'-O-cyclocytidine hydrochloride"
"N=c1nc2n(cc1I)[C@@H]1O[C@H](CO)[C@H](O2)[C@H]1O [5-Iodo-2,3'-O-cyclocytidine hydrochloride]",IC50,[1],10 µM
same,"cytotoxic effect on A549 cells compared to 2,3'-O-cyclocytidine hydrochloride",[1],significantly superior cytotoxic effect
"COc1cccc2c1C(=O)c1c(O)c3c(c(O)c1C2=O)C[C@@](O)(C(=O)CO)C[C@@H]3O[C@H]1C[C@H](N)[C@H](O)[C@H](C)O1 [ADR, Adfiamycin]",survival rate,"A549; A549, Table 12",≤ 33.3%
same,Survival Rate (%),"A549; Experiment 1, 7 mg/kg i.p. × 1",16.7%
same,Growth Delay,"A549; Experiment 1, 7 mg/kg i.p. × 1",5 days
same,Tumor Weight (% Inhibition),"A549; Experiment 1, 7 mg/kg i.p. × 1",6%
same,Survival Rate (%),"A549; Experiment 2, 5 mg/kg i.p. × 1",16.7%
same,Growth Delay,"A549; Experiment 2, 5 mg/kg i.p. × 1",6 days
same,Tumor Weight (% Inhibition),"A549; Experiment 2, 5 mg/kg i.p. × 1",24%
same,weight loss,A549; in vivo,weight loss
same,Weight Loss (% Decrease),"A549; in vivo, ip, 5 mg/kg",32%
same,Weight Loss (% Decrease),"A549; in vivo, ip, 7 mg/kg",16%
"N=c1ccn2c(n1)O[C@@H]1[C@@H](O)[C@H]2O[C@@H]1CO [2,3'-O-Cyclocytidine hydrochloride, 2,3'-O-cyclocytidine hydrochloride, reference compound]",IC50,[1],50 µM
same,Growth Delay,A375 melanoma cells; [14],2 days
same,Tumor Weight (% Inhibition),A375 melanoma cells; [14],+6%
same,Survival Rate (%),"A375 melanoma cells; in vivo, ip, 1000 mg/kg",100%
same,Weight Loss (% Decrease),"A375 melanoma cells; in vivo, ip, 1000 mg/kg",0%
"CN(C)/N=N/c1[nH]cnc1C(N)=O [DTIC, Dacarbazine, reference compound]",Growth Delay,A375 melanoma cells; [15],12 days
same,Tumor Weight (% Inhibition),A375 melanoma cells; [15],53%
same,Growth Delay,A375 melanoma cells; [16],13 days
same,Tumor Weight (% Inhibition),A375 melanoma cells; [16],59%
